# Patent publication US9040067B2, “Disinfecting and antimicrobial compositions” (priority 2005, dated 2015)
# How the values were obtained:
# [1] = Solubilization of dehydroacetic acid by ethyl lactate; type: physicochemical; settings: 5.0 parts of dehydroacetic acid in 100 ml of ethyl lactate, room temperature
# E. coli 0157;H7 = assay: MIC/MLC in brain heart infusion broth; type: cell-based; further: key: + = growth (inactive); − = no growth (active)
# Procedure: (§1) The tests were carried out in 10 ml of brain heart infusion broth. The esters were serially diluted in brain heart infusion broth of samples of, 0.1, 0.2, 0.3, 0.4 and 0.5/10 ml and challenged with 0.1 ml of 1/100 dilution of 24 hr old brain heart infusion bacterial culture. The lowest concentration determined the minimum inhibitory concentration (MIC). The samples were observed after 48 hrs at 37° C. A loopful from tubes without growth were plated on BHI agar plates and observed for growth for 24 to 48 hrs at 37° C. The samples with the lowest concentration of the ester without bacterial growth on the plates represented the minimum lethal concentration (MLC).
# (§2) A series of samples of (a) methyl lactate, (b) ethyl lactate and (c) butyl lactate, alone, and in admixture with varying amounts of decyl lactate and sodium dodecyl sulfates were used to test minimum inhibitory activity (MIC) by the method described in Example II, against the cultures of E. coli 0157 H7, Listeria monocytogenes, Staphylococcus aureus, Salmonella typhi, and Pseudomonas aeruginosa.
# Listeria monocytogenes = assay: MIC/MLC in brain heart infusion broth; type: cell-based
# Procedure: as §1, §2
# Pseudomonas aeruginosa = assay: MIC/MLC in brain heart infusion broth; type: cell-based; settings: for MIC, Concentration of Lactic Esters 0.5%: 0.5% ester; for MIC, Concentration of Lactic Esters 1%: 1% ester; for MIC, Concentration of Lactic Esters 2%: 2% ester; for MIC, Concentration of Lactic Esters 3%: 3% ester; for MIC, Concentration of Lactic Esters 4%: 4% ester; for MIC, Concentration of Lactic Esters 5%: 5% ester; on MIC, Concentration of Lactic Esters 0.5%: key: + = growth (inactive); − = no growth (active); on MIC, Concentration of Lactic Esters 1%: key: + = growth (inactive); − = no growth (active); on MIC, Concentration of Lactic Esters 2%: key: + = growth (inactive); − = no growth (active); on MIC, Concentration of Lactic Esters 3%: key: + = growth (inactive); − = no growth (active); on MIC, Concentration of Lactic Esters 4%: key: + = growth (inactive); − = no growth (active); on MIC, Concentration of Lactic Esters 5%: key: + = growth (inactive); − = no growth (active)
# Procedure: as §1, §2
# Staphylococcus aureus = assay: MIC/MLC in brain heart infusion broth; type: cell-based
# Procedure: The tests were carried out in 10 ml of brain heart infusion broth. […] The lowest concentration determined the minimum inhibitory concentration (MIC). The samples were observed after 48 hrs at 37° C. A loopful from tubes without growth were plated on BHI agar plates and observed for growth for 24 to 48 hrs at 37° C. The samples with the lowest concentration of the ester without bacterial growth on the plates represented the minimum lethal concentration (MLC).
# as §2
# Salmonella typhimurium = assay: MIC/MLC in brain heart infusion broth; type: cell-based
# Procedure: as §1
# Salmonella typhi = assay: MIC in brain heart infusion broth; type: cell-based; settings: Table 4; further: key: + = growth (inactive); − = no growth (active)
# Procedure: as §1, §2
# Saccharomyces cerevisiae = assay: MIC and MLC against yeast in Sab. broth; type: cell-based; settings: for Lethal (MLC) Concentration 1% / Inhibitory (MIC) Concentration 1%: 1% ester; for Lethal (MLC) Concentration 1.5% / Inhibitory (MIC) Concentration 1.5%: 1.5% ester; for Lethal (MLC) Concentration 2% / Inhibitory (MIC) Concentration 2%: 2% ester; for Lethal (MLC) Concentration 3% / Inhibitory (MIC) Concentration 3%: 3% ester; for Lethal (MLC) Concentration 4% / Inhibitory (MIC) Concentration 4%: 4% ester; on Lethal (MLC) Concentration 1%: key: + = growth (inactive); − = no growth (active); on Lethal (MLC) Concentration 1.5%: key: + = growth (inactive); − = no growth (active); on Lethal (MLC) Concentration 2%: key: + = growth (inactive); − = no growth (active); on Lethal (MLC) Concentration 3%: key: + = growth (inactive); − = no growth (active); on Lethal (MLC) Concentration 4%: key: + = growth (inactive); − = no growth (active)
# Procedure: A 0.1 ml of 1/100 dilution of 48 hr old culture of S. cerevisiae was used as inoculum. The test was performed using Sab. broth. The tubes were incubated at room temperature 25° C. The test was read after 48 hrs.
# [2] = 1%, second MLC line of organism
# [3] = 2%, second MLC line of organism
# [4] = 3%, second MLC line of organism
# [5] = 4%, second MLC line of organism
# [6] = 5%, second MLC line of organism
smiles,measurement,setting,value
CC(=O)C1C(=O)C=C(C)OC1=O (centres unmarked) [dehydroacetic acid],solubility in ethyl lactate (appearance of solution),[1],clear solution
"CCOC(=O)C(C)O (centres unmarked) [Ethyl lactate, ethyl lactate]","MLC, Concentration of Ethyl lactate 0.5%",E. coli 0157;H7; first MLC line of organism,+
same,"MLC, Concentration of Ethyl lactate 0.5%",E. coli 0157;H7; second MLC line of organism,+
same,"MIC, growth at 1%","E. coli 0157;H7; 1%, Table 4",+
same,"MLC, Concentration of Ethyl lactate 1%","E. coli 0157;H7; 1%, first MLC line of organism",+
same,"MLC, Concentration of Ethyl lactate 1%",E. coli 0157;H7; [2],+
same,"MIC, growth at 2%","E. coli 0157;H7; 2%, Table 4",+
same,"MLC, Concentration of Ethyl lactate 2%","E. coli 0157;H7; 2%, first MLC line of organism",−
same,"MLC, Concentration of Ethyl lactate 2%",E. coli 0157;H7; [3],+
same,"MIC, growth at 3%","E. coli 0157;H7; 3%, Table 4",+
same,"MLC, Concentration of Ethyl lactate 3%","E. coli 0157;H7; 3%, first MLC line of organism",−
same,"MLC, Concentration of Ethyl lactate 3%",E. coli 0157;H7; [4],−
same,"MIC, growth at 4%","E. coli 0157;H7; 4%, Table 4",−
same,"MLC, Concentration of Ethyl lactate 4%","E. coli 0157;H7; 4%, first MLC line of organism",−
same,"MLC, Concentration of Ethyl lactate 4%",E. coli 0157;H7; [5],−
same,"MIC, growth at 5%","E. coli 0157;H7; 5%, Table 4",−
same,"MLC, Concentration of Ethyl lactate 5%","E. coli 0157;H7; 5%, first MLC line of organism",−
same,"MLC, Concentration of Ethyl lactate 5%",E. coli 0157;H7; [6],−
same,"MLC, Concentration of Ethyl lactate 0.5%",Listeria monocytogenes; first MLC line of organism,+
same,"MLC, Concentration of Ethyl lactate 0.5%",Listeria monocytogenes; second MLC line of organism,+
same,"MIC, growth at 1%","Listeria monocytogenes; 1%, Table 4",+
same,"MLC, Concentration of Ethyl lactate 1%","Listeria monocytogenes; 1%, first MLC line of organism",+
same,"MLC, Concentration of Ethyl lactate 1%",Listeria monocytogenes; [2],+
same,"MIC, growth at 2%","Listeria monocytogenes; 2%, Table 4",+
same,"MLC, Concentration of Ethyl lactate 2%","Listeria monocytogenes; 2%, first MLC line of organism",+
same,"MLC, Concentration of Ethyl lactate 2%",Listeria monocytogenes; [3],+
same,"MIC, growth at 3%","Listeria monocytogenes; 3%, Table 4",+
same,"MLC, Concentration of Ethyl lactate 3%","Listeria monocytogenes; 3%, first MLC line of organism",+
same,"MLC, Concentration of Ethyl lactate 3%",Listeria monocytogenes; [4],+
same,"MIC, growth at 4%","Listeria monocytogenes; 4%, Table 4",+
same,"MLC, Concentration of Ethyl lactate 4%","Listeria monocytogenes; 4%, first MLC line of organism",+
same,"MLC, Concentration of Ethyl lactate 4%",Listeria monocytogenes; [5],+
same,"MIC, growth at 5%","Listeria monocytogenes; 5%, Table 4",+
same,"MLC, Concentration of Ethyl lactate 5%","Listeria monocytogenes; 5%, first MLC line of organism",+
same,"MLC, Concentration of Ethyl lactate 5%",Listeria monocytogenes; [6],+
same,"MIC, Concentration of Lactic Esters 0.5%",Pseudomonas aeruginosa; SDS 0.0 ppm,+
same,"MIC, Concentration of Lactic Esters 0.5%",Pseudomonas aeruginosa; SDS 50 ppm,−
same,"MIC, Concentration of Lactic Esters 0.5%",Pseudomonas aeruginosa; SDS 100 ppm,−
same,"MIC, Concentration of Lactic Esters 0.5%",Pseudomonas aeruginosa; SDS 200 ppm,−
same,"MLC, Concentration of Ethyl lactate 0.5%",Pseudomonas aeruginosa; first MLC line of organism,+
same,"MLC, Concentration of Ethyl lactate 0.5%",Pseudomonas aeruginosa; second MLC line of organism,+
same,"MIC, Concentration of Lactic Esters 1%",Pseudomonas aeruginosa; SDS 0.0 ppm,+
same,"MIC, Concentration of Lactic Esters 1%",Pseudomonas aeruginosa; SDS 50 ppm,−
same,"MIC, Concentration of Lactic Esters 1%",Pseudomonas aeruginosa; SDS 100 ppm,−
same,"MIC, Concentration of Lactic Esters 1%",Pseudomonas aeruginosa; SDS 200 ppm,−
same,"MLC, Concentration of Ethyl lactate 1%",Pseudomonas aeruginosa; first MLC line of organism,+
same,"MLC, Concentration of Ethyl lactate 1%",Pseudomonas aeruginosa; second MLC line of organism,+
same,"MIC, Concentration of Lactic Esters 2%",Pseudomonas aeruginosa; SDS 0.0 ppm,−
same,"MIC, Concentration of Lactic Esters 2%",Pseudomonas aeruginosa; SDS 50 ppm,−
same,"MIC, Concentration of Lactic Esters 2%",Pseudomonas aeruginosa; SDS 100 ppm,−
same,"MIC, Concentration of Lactic Esters 2%",Pseudomonas aeruginosa; SDS 200 ppm,−
same,"MLC, Concentration of Ethyl lactate 2%",Pseudomonas aeruginosa; first MLC line of organism,−
same,"MLC, Concentration of Ethyl lactate 2%",Pseudomonas aeruginosa; second MLC line of organism,+
same,"MIC, Concentration of Lactic Esters 3%",Pseudomonas aeruginosa; SDS 0.0 ppm,−
same,"MIC, Concentration of Lactic Esters 3%",Pseudomonas aeruginosa; SDS 50 ppm,−
same,"MIC, Concentration of Lactic Esters 3%",Pseudomonas aeruginosa; SDS 100 ppm,−
same,"MIC, Concentration of Lactic Esters 3%",Pseudomonas aeruginosa; SDS 200 ppm,−
same,"MLC, Concentration of Ethyl lactate 3%",Pseudomonas aeruginosa; first MLC line of organism,−
same,"MLC, Concentration of Ethyl lactate 3%",Pseudomonas aeruginosa; second MLC line of organism,+
same,"MIC, Concentration of Lactic Esters 4%",Pseudomonas aeruginosa; SDS 0.0 ppm,−
same,"MIC, Concentration of Lactic Esters 4%",Pseudomonas aeruginosa; SDS 50 ppm,−
same,"MIC, Concentration of Lactic Esters 4%",Pseudomonas aeruginosa; SDS 100 ppm,−
same,"MIC, Concentration of Lactic Esters 4%",Pseudomonas aeruginosa; SDS 200 ppm,−
same,"MLC, Concentration of Ethyl lactate 4%",Pseudomonas aeruginosa; first MLC line of organism,−
same,"MLC, Concentration of Ethyl lactate 4%",Pseudomonas aeruginosa; second MLC line of organism,−
same,"MIC, Concentration of Lactic Esters 5%",Pseudomonas aeruginosa; SDS 0.0 ppm,−
same,"MIC, Concentration of Lactic Esters 5%",Pseudomonas aeruginosa; SDS 50 ppm,−
same,"MIC, Concentration of Lactic Esters 5%",Pseudomonas aeruginosa; SDS 100 ppm,−
same,"MIC, Concentration of Lactic Esters 5%",Pseudomonas aeruginosa; SDS 200 ppm,−
same,"MLC, Concentration of Ethyl lactate 5%",Pseudomonas aeruginosa; first MLC line of organism,−
same,"MLC, Concentration of Ethyl lactate 5%",Pseudomonas aeruginosa; second MLC line of organism,−
same,"MLC, Concentration of Ethyl lactate 0.5%",Staphylococcus aureus; first MLC line of organism,+
same,"MLC, Concentration of Ethyl lactate 0.5%",Staphylococcus aureus; second MLC line of organism,+
same,"MIC, growth at 1%","Staphylococcus aureus; 1%, Table 4",+
same,"MLC, Concentration of Ethyl lactate 1%","Staphylococcus aureus; 1%, first MLC line of organism",+
same,"MLC, Concentration of Ethyl lactate 1%",Staphylococcus aureus; [2],+
same,"MIC, growth at 2%","Staphylococcus aureus; 2%, Table 4",+
same,"MLC, Concentration of Ethyl lactate 2%","Staphylococcus aureus; 2%, first MLC line of organism",+
same,"MLC, Concentration of Ethyl lactate 2%",Staphylococcus aureus; [3],+
same,"MIC, growth at 3%","Staphylococcus aureus; 3%, Table 4",+
same,"MLC, Concentration of Ethyl lactate 3%","Staphylococcus aureus; 3%, first MLC line of organism",+
same,"MLC, Concentration of Ethyl lactate 3%",Staphylococcus aureus; [4],+
same,"MIC, growth at 4%","Staphylococcus aureus; 4%, Table 4",+
same,"MLC, Concentration of Ethyl lactate 4%","Staphylococcus aureus; 4%, first MLC line of organism",+
same,"MLC, Concentration of Ethyl lactate 4%",Staphylococcus aureus; [5],+
same,"MIC, growth at 5%","Staphylococcus aureus; 5%, Table 4",+
same,"MLC, Concentration of Ethyl lactate 5%","Staphylococcus aureus; 5%, first MLC line of organism",−
same,"MLC, Concentration of Ethyl lactate 5%",Staphylococcus aureus; [6],+
same,"MLC, Concentration of Ethyl lactate 0.5%",Salmonella typhimurium; first MLC line of organism,+
same,"MLC, Concentration of Ethyl lactate 0.5%",Salmonella typhimurium; second MLC line of organism,+
same,"MLC, Concentration of Ethyl lactate 1%",Salmonella typhimurium; first MLC line of organism,+
same,"MLC, Concentration of Ethyl lactate 1%",Salmonella typhimurium; second MLC line of organism,+
same,"MLC, Concentration of Ethyl lactate 2%",Salmonella typhimurium; first MLC line of organism,+
same,"MLC, Concentration of Ethyl lactate 2%",Salmonella typhimurium; second MLC line of organism,+
same,"MLC, Concentration of Ethyl lactate 3%",Salmonella typhimurium; first MLC line of organism,+
same,"MLC, Concentration of Ethyl lactate 3%",Salmonella typhimurium; second MLC line of organism,+
same,"MLC, Concentration of Ethyl lactate 4%",Salmonella typhimurium; first MLC line of organism,−
same,"MLC, Concentration of Ethyl lactate 4%",Salmonella typhimurium; second MLC line of organism,+
same,"MLC, Concentration of Ethyl lactate 5%",Salmonella typhimurium; first MLC line of organism,−
same,"MLC, Concentration of Ethyl lactate 5%",Salmonella typhimurium; second MLC line of organism,+
same,"MIC, growth at 1%",Salmonella typhi; 1%,+
same,"MIC, growth at 2%",Salmonella typhi; 2%,+
same,"MIC, growth at 3%",Salmonella typhi; 3%,+
same,"MIC, growth at 4%",Salmonella typhi; 4%,−
same,"MIC, growth at 5%",Salmonella typhi; 5%,−
same,Lethal (MLC) Concentration 1%,Saccharomyces cerevisiae,+
same,Inhibitory (MIC) Concentration 1%,"Saccharomyces cerevisiae; 48 hrs, 25° C",+
same,Inhibitory (MIC) Concentration 1%,Saccharomyces cerevisiae; Sodium lauryl sulfate 200 ppm,+
same,Lethal (MLC) Concentration 1%,Saccharomyces cerevisiae; Sodium lauryl sulfate 200 ppm,+
same,Lethal (MLC) Concentration 1.5%,Saccharomyces cerevisiae,+
same,Inhibitory (MIC) Concentration 1.5%,"Saccharomyces cerevisiae; 48 hrs, 25° C",−
same,Inhibitory (MIC) Concentration 1.5%,Saccharomyces cerevisiae; Sodium lauryl sulfate 200 ppm,−
same,Lethal (MLC) Concentration 1.5%,Saccharomyces cerevisiae; Sodium lauryl sulfate 200 ppm,+
same,Lethal (MLC) Concentration 2%,Saccharomyces cerevisiae,−
same,Inhibitory (MIC) Concentration 2%,"Saccharomyces cerevisiae; 48 hrs, 25° C",−
same,Inhibitory (MIC) Concentration 2%,Saccharomyces cerevisiae; Sodium lauryl sulfate 200 ppm,−
same,Lethal (MLC) Concentration 2%,Saccharomyces cerevisiae; Sodium lauryl sulfate 200 ppm,−
same,Lethal (MLC) Concentration 3%,Saccharomyces cerevisiae,−
same,Inhibitory (MIC) Concentration 3%,"Saccharomyces cerevisiae; 48 hrs, 25° C",−
same,Inhibitory (MIC) Concentration 3%,Saccharomyces cerevisiae; Sodium lauryl sulfate 200 ppm,−
same,Lethal (MLC) Concentration 3%,Saccharomyces cerevisiae; Sodium lauryl sulfate 200 ppm,−
same,Lethal (MLC) Concentration 4%,Saccharomyces cerevisiae,−
same,Inhibitory (MIC) Concentration 4%,"Saccharomyces cerevisiae; 48 hrs, 25° C",−
same,Inhibitory (MIC) Concentration 4%,Saccharomyces cerevisiae; Sodium lauryl sulfate 200 ppm,−
same,Lethal (MLC) Concentration 4%,Saccharomyces cerevisiae; Sodium lauryl sulfate 200 ppm,−
